The source of these data is ChEMBL document CHEMBL1131555 (Bioorg Med Chem Lett, 1998).

In assay [1] the target is T1, Androgen receptor (Homo sapiens, UniProt P10275).
T1 sequence (P10275 whole entry): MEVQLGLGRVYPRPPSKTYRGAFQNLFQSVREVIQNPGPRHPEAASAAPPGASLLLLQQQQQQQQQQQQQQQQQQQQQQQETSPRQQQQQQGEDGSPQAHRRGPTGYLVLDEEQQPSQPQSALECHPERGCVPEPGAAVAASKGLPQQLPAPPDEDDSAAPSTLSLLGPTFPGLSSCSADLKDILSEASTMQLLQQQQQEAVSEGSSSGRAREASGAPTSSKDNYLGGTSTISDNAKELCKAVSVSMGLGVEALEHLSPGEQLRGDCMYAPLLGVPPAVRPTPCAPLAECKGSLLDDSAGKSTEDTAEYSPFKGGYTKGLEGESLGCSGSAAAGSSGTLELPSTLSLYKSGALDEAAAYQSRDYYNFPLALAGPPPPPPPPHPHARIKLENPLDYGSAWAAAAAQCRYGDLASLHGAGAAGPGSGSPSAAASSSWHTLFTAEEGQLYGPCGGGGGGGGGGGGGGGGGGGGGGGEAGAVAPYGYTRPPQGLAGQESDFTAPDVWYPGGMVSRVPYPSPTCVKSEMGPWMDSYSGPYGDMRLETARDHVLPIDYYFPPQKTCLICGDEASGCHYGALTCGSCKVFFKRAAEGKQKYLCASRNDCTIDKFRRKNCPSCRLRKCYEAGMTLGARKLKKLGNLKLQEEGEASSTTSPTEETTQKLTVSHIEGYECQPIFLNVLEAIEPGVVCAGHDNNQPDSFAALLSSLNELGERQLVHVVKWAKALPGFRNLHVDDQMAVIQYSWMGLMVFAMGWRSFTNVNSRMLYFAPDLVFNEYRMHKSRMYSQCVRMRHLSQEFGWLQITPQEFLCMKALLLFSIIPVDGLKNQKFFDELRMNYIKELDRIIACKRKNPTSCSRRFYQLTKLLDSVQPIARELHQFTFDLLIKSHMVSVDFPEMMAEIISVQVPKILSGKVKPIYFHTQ
Description: Displacement of DHT from human androgen receptor

The target in assay [2] is T2, Glucocorticoid receptor (Homo sapiens, UniProt P04150).
T2 sequence (P04150 whole entry): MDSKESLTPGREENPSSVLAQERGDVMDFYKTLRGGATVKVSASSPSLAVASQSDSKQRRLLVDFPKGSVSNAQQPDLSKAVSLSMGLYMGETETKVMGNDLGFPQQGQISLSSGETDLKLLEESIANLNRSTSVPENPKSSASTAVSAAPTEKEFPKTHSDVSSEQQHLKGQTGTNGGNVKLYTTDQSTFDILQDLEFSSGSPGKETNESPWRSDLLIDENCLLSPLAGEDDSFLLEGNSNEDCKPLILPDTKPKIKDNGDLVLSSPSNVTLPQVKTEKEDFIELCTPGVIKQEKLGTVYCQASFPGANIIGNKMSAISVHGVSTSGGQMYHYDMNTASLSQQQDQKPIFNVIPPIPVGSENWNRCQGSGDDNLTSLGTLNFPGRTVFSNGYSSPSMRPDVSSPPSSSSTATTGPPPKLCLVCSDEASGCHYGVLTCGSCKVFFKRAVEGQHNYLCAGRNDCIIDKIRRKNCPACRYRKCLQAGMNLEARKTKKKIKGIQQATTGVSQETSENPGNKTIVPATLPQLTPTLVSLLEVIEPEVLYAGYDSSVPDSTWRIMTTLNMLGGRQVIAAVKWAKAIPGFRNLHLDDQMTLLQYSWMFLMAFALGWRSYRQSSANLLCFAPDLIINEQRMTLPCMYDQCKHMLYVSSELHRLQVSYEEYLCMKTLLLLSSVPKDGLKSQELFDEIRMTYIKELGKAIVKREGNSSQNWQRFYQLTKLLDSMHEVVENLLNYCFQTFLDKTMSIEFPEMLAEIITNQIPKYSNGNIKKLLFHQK
Description: Displacement of Dexamethasone from human glucocorticoid receptor

On to `CCCCC1Oc2ccc(Cl)cc2-c2ccc3c(c21)C(C)=CC(C)(C)N3` (stereo not given), for which the results for the Ki in assay [1] and in assay [2] were 886 nM and 394 nM, respectively.
Turning to `CC1=CC(C)(C)Nc2ccc3c(c21)C(CCC(C)C)Oc1ccccc1-3` (stereo not given), the Ki (usually a measure of affinity in units of concentration, obtained from inhibition or displacement) in assay [1] amounted to 1480 nM; in assay [2], 158 nM.
For `CCCCC1Oc2ccc(C)cc2-c2ccc3c(c21)C(C)=CC(C)(C)N3` (stereo not given), in that order: 903 nM and 51 nM.
For `CC1=CC(C)(C)Nc2ccc3c(c21)C(C)Oc1ccc(F)cc1-3` (stereo not given), the Ki in assay [1] worked out at 456 nM; in assay [2], 749 nM.
For `CCCOC1Oc2ccc(Cl)cc2-c2ccc3c(c21)C(C)=CC(C)(C)N3` (stereo not given), in that order: 697 nM and 260 nM.
For `CC1=CC(C)(C)Nc2ccc3c(c21)C(C)Oc1ccc(Cl)cc1-3` (stereo not given), in that order: 621 nM and 367 nM.
In the same order, the values of `CCCCC1Oc2ccc(OC)cc2-c2ccc3c(c21)C(C)=CC(C)(C)N3` (stereo not given) are 785 nM and 130 nM.
For the molecule `CCCCC1Oc2ccccc2-c2ccc3c(c21)C(C)=CC(C)(C)N3` (stereo not given), the Ki in assay [1] stood at 2050 nM; in assay [2], 813 nM.
As for `CCCCC1Oc2ccc(F)cc2-c2ccc3c(c21)C(C)=CC(C)(C)N3` (stereo not given), the results for the inhibitory constant (Ki) in assay [1] and in assay [2] were 1330 nM and 533 nM, respectively.
Consider `C=CCC1Oc2ccccc2-c2ccc3c(c21)C(C)=CC(C)(C)N3` (stereo not given), for which the inhibitory constant (Ki) in assay [1] was over 1000 nM; in assay [2] it was 889 nM.
